In PubChem BioAssay AID1845196 (Molecular Pharmacology Branch, DTP, NCI, 2023):

System: 292921-168-R tumor spheroid viability
Test: Anticancer human tumor 292921-168-R patient-derived pancreatic carcinoma cell line growth inhibition
Conditions: spheroids with HUVEC and MSC; for IC50: curve of first compound; for viability, T/C: stronger effect = lower value
Description: Multicellular complex tumor spheroid response to DNA repair inhibitors in combination with DNA-damaging drugs
This study explores the anticancer activities of DNA-damaging drugs and inhibitors of DNA damage repair, both as single agents and in combinations. Complex tumor spheroids comprised of malignant cells, endothelial cells and mesenchymal stem cells served as an in vitro model for human solid tumors. This model system incorporates physiologically relevant features and patient-derived or established malignant cell lines with clinically relevant genetic alterations from many tumor types. Twenty-six patient-derived or established malignant cell lines were evaluated representing sarcoma, melanoma, small cell lung cancer (SCLC), non-small cell lung cancer (NSCLC), as well as bladder, ovarian and pancreatic cancers. The concentration ranges selected for each drug and investigational agent were based upon clinically achievable concentrations if the clinical Cmax of the agent was known.
Compounds. The drugs and compounds olaparib (NSC753686), talazoparib (NSC767125), berzosertib (NSC777718), elimusertib (NSC800525), nedisertib (NSC802822), VX-984 (NSC792969), AZD-1390 (NSC803789), temozolomide (NSC362856), topotecan (NSC609699), trabectedin (NSC813783), staurosporine (NSC755774), and gemcitabine (NSC613327) were obtained from the National Cancer Institute (NCI) Developmental Therapeutics Program Chemical Repository. The FDA-approved anticancer drug set is available from the Developmental Therapeutics Program at https://dtp.cancer.gov/organization/dscb/obtaining/available_plates.htm. […] The stock solutions were prepared in dimethyl sulfoxide (DMSO, Sigma-Aldrich, St. Louis, MO, cat. D2650) at 400-fold the tested concentration and stored at -70 degrees C. Prior to their use, the stock solutions were diluted in fresh medium and the final DMSO concentration in the assay was 0.25% (v/v). All drugs and investigational agents were tested over a range starting from a high concentration at or near the clinical Cmax and decreasing in half-log increments. If the clinical Cmax for an agent had not been determined, the highest concentration tested was 10 microM.
Cell Lines. The patient-derived cancer cell (PDC) lines: 156681-154-R-J1-PDC, 283228-195-R-J1-PDC, 287954-098-R-J1-PDC, 292921-168-R-J2-PDC, 349418-098-R-PDC, 425362-245-T-J1-PDC, 556581-035-R-J1-PDC, and BL0293-F563-PDC were received from the NCI Patient-Derived Models Repository (PDMR, https://pdmr.cancer.gov). The established cell lines HS-SY-2 (RRID:CVCL_8719), MPNST, and SYO-1 (RRID:CVCL_7146) were obtained from the Sloan Kettering Institute. The alveolar soft parts sarcoma cell line ASPS-1 (RRID:CVCL_S738) was established at the NCI and grown from internal seed stocks. The following established cell lines were purchased from the American Type Culture Collection (ATCC, Manassas, VA): G-401 (ATCC, cat. CRL-1441, RRID:CVCL_0270), SW982 (ATCC, cat. HTB-93, RRID:CVCL_1734), VA-ES-BJ (ATCC, cat. CRL-2138, RRID:CVCL_1785), NCI-H719 (ATCC, cat. CRL-5837, RRID:CVCL_1582), NCI-H196 (ATCC, cat. CRL-5823, RRID:CVCL_1509), NCI-H841 (ATCC, cat. CRL-5845, RRID:CVCL_1595), NCI-H1618 (ATCC, cat. CRL-5879, RRID:CVCL_1480), NCI-H1876 (ATCC, cat. CRL-5902, RRID:CVCL_1503), DMS 114 (ATCC, cat. CRL-2066; RRID:CVCL_1174), NCI-H211 (ATCC, cat. CRL-5824; RRID:CVCL_1529), and SW 1271 (ATCC, cat. CRL-2177, RRID:CVCL_1716). The small cell lung cancer cell line COR-L88 was purchased from Sigma-Aldrich (cat. 92031917-1VL, RRID:CVCL_1141). The non-small cell lung cancer cell lines NCI-H226 (RRID:CVCL_1544) and NCI-H322M (RRID:CVCL_1557) were established at the NCI and grown from internal seed stocks. Pooled donor human umbilical vein endothelial cells (HUVEC, Lonza, cat. CC-2519) and human mesenchymal stem cells (hMSC, Lonza, cat. PT-2501) were purchased from Lonza (Walkersville, MD).
Cell Culture. All cells were maintained in an incubator at 37 degrees C and 5% CO2 with 95% humidity. […]

[1] = second compound 0.003 µM, first compound 0.00949 µM
[2] = second compound 0.003 µM, first compound 0.03 µM
[3] = second compound 0.003 µM, first compound 0.0949 µM
[4] = second compound 0.003 µM, first compound 0.3 µM
[5] = second compound 0.003 µM, first compound 0.949 µM
[6] = second compound 0.003 µM, first compound 3 µM
[7] = second compound 0.00949 µM, first compound 0.00949 µM
[8] = second compound 0.00949 µM, first compound 0.03 µM
[9] = second compound 0.00949 µM, first compound 0.0949 µM
[10] = second compound 0.00949 µM, first compound 0.3 µM
[11] = second compound 0.00949 µM, first compound 0.949 µM
[12] = second compound 0.00949 µM, first compound 3 µM
[13] = second compound 0.03 µM, first compound 0.00949 µM
[14] = second compound 0.03 µM, first compound 0.03 µM
[15] = second compound 0.03 µM, first compound 0.0949 µM
[16] = second compound 0.03 µM, first compound 0.3 µM
[17] = second compound 0.03 µM, first compound 0.949 µM
[18] = second compound 0.03 µM, first compound 3 µM
[19] = second compound 0.0949 µM, first compound 0.00949 µM
[20] = second compound 0.0949 µM, first compound 0.03 µM
[21] = second compound 0.0949 µM, first compound 0.0949 µM
[22] = second compound 0.0949 µM, first compound 0.3 µM
[23] = second compound 0.0949 µM, first compound 0.949 µM
[24] = second compound 0.0949 µM, first compound 3 µM
[25] = second compound 0.3 µM, first compound 0.00949 µM
[26] = second compound 0.3 µM, first compound 0.03 µM
[27] = second compound 0.3 µM, first compound 0.0949 µM
[28] = second compound 0.3 µM, first compound 0.3 µM
[29] = second compound 0.3 µM, first compound 0.949 µM
[30] = second compound 0.3 µM, first compound 3 µM
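Further: spheroids exposed to compounds for 7 days.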

| Structure (SMILES) | IC50 (second compound 0.003 µM) [nM] | IC50 (second compound 0.00949 µM) [nM] | IC50 (second compound 0.03 µM) [nM] | IC50 (second compound 0.0949 µM) [nM] | IC50 (second compound 0.3 µM) [nM] | viability, T/C [3] [%] | viability, T/C [4] [%] | viability, T/C [5] [%] | viability, T/C [6] [%] | viability, T/C [9] [%] | viability, T/C [10] [%] | viability, T/C [11] [%] | viability, T/C [12] [%] | viability, T/C [15] [%] | viability, T/C [16] [%] | viability, T/C [17] [%] | viability, T/C [18] [%] | viability, T/C [21] [%] | viability, T/C [22] [%] | viability, T/C [23] [%] | also measured |
| --- | --- | --- | --- | --- | --- | --- | --- | --- | --- | --- | --- | --- | --- | --- | --- | --- | --- | --- | --- | --- | --- |
| CNCc1ccc(-c2cc(-c3nc(-c4ccc(S(=O)(=O)C(C)C)cc4)cnc3N)on2)cc1 + CC[C@@]1(O)C(=O)OCc2c1cc1n(c2=O)Cc2cc3c(CN(C)C)c(O)ccc3nc2-1 | 107 | 69.2 | < 9.49 | < 9.49 | < 9.49 | 55.9 | 21.1 | 16.6 | 8.99 | 41 | 16.7 | 15.6 | 10.3 | 27 | 14.7 | 13.4 | 9.47 | 11.2 | 10.1 | 10.3 | viability, T/C [1]: 92.2%; viability, T/C [2]: 77.3%; viability, T/C [7]: 73.1%; viability, T/C [8]: 74.7%; viability, T/C [13]: 35.9%; viability, T/C [14]: 32.9%; viability, T/C [19]: 12.6%; viability, T/C [20]: 15%; viability, T/C [24]: 2.13%; viability, T/C [25]: 4.63%; viability, T/C [26]: 4.83%; viability, T/C [27]: 4.59%; viability, T/C [28]: 5.23%; viability, T/C [29]: 6.72%; viability, T/C [30]: 0.97% |
| Cn1ncnc1[C@H]1c2n[nH]c(=O)c3cc(F)cc(c23)N[C@@H]1c1ccc(F)cc1 + CC[C@@]1(O)C(=O)OCc2c1cc1n(c2=O)Cc2cc3c(CN(C)C)c(O)ccc3nc2-1 | 181 | 13.3 | < 9.49 | < 9.49 | < 9.49 | 57.4 | 41 | 31.4 | 12 | 33.8 | 30.1 | 19.5 | 12.9 | 17.4 | 16.9 | 14.5 | 8.5 | 9.81 | 8.52 | 7.84 | viability, T/C [1]: 82.7%; viability, T/C [2]: 73.9%; viability, T/C [7]: 52.6%; viability, T/C [8]: 44.7%; viability, T/C [13]: 23.6%; viability, T/C [14]: 21.1%; viability, T/C [19]: 11%; viability, T/C [20]: 10.7%; viability, T/C [24]: 5.32%; viability, T/C [25]: 4.91%; viability, T/C [26]: 5.12%; viability, T/C [27]: 4.52%; viability, T/C [28]: 4.48%; viability, T/C [29]: 3.83%; viability, T/C [30]: 2.41% |
| O=C(c1cc(Cc2n[nH]c(=O)c3ccccc23)ccc1F)N1CCN(C(=O)C2CC2)CC1 + CC[C@@]1(O)C(=O)OCc2c1cc1n(c2=O)Cc2cc3c(CN(C)C)c(O)ccc3nc2-1 | 5580 | 3250 | < 94.9 | < 94.9 | < 94.9 | 85.8 | 84.9 | 83.2 | 71.3 | 58.6 | 55 | 58.4 | 51.2 | 22.6 | 22.7 | 20.4 | 19.9 | 10.1 | 11.3 | 11.2 | viability, T/C (second compound 0.003 µM, first compound 9.49 µM): 31.7%; viability, T/C (second compound 0.003 µM, first compound 30 µM): 25.6%; viability, T/C (second compound 0.00949 µM, first compound 9.49 µM): 31.1%; viability, T/C (second compound 0.00949 µM, first compound 30 µM): 23.9%; viability, T/C (second compound 0.03 µM, first compound 9.49 µM): 18.1%; viability, T/C (second compound 0.03 µM, first compound 30 µM): 18.6%; viability, T/C [24]: 10%; viability, T/C (second compound 0.0949 µM, first compound 9.49 µM): 8.85%; viability, T/C (second compound 0.0949 µM, first compound 30 µM): 10.6%; viability, T/C [27]: 4.24%; viability, T/C [28]: 4.06%; viability, T/C [29]: 4.61%; viability, T/C [30]: 4.65%; viability, T/C (second compound 0.3 µM, first compound 9.49 µM): 3.41%; viability, T/C (second compound 0.3 µM, first compound 30 µM): 3.89% |
